In patent US9999625B2, “Pyrrolobenzodiazepine compounds” (FEMTOGENIX LIMITED, priority 2014, dated 2018):
“Also recorded” adds a separate entry of the source.

Legend:
[1] = tested on: STAT3 consensus sequence (5′-GACATTGC-3′); assay: HPLC assay of DNA adduct formation; assay type: binding; details: 4:1 ligand:oligonucleotide, room temperature, UV 254 nm
From the text: (§1) The interactions of C1-linked PBD core compound (42), […] C1-linked PBD dimer compound (51) were studied with duplex transcription factor consensus sequences. For the C1-linked PBD core compound (42) and C1-linked PBD dimer compound (51) the study used a STAT3 consensus sequence (5′-GACATTGC-3′). Whereas for the C1-linked PBD monomer compound (49), an NF-KB consensus sequence (5′-GGGACAGCCC-3′) was used in the study. The interactions of each of the three compounds were studied with an HPLC assay utilizing a X-bridge MS […] Oligonucleotide Separation Technology (OST) column (2.3×50 mm) and a gradient of 40% acetonitrile/water and 100 mM TEAB ([…])/water as mobile phase with a flow rate of 0.5 mL/min and UV detection at 254 nm. A 4:1 molar ratio of ligand:oligonucleotide was used, with each single-stranded oligonucleotide dissolved in 1M ammonium acetate to form stock solutions of 1 mM. The oligonucleotides were initially annealed by heating their 1 mM solutions to 70° C. for 10 mins followed by gradual cooling over 8 hours and storage overnight at −20° C. Working solutions of oligonucleotides of 25 μM were then prepared by diluting the annealed stock solutions with 100 mM ammonium acetate. The ligands were dissolved in DMSO to form a stock solution of 10 mM which was stored at −20° C. for no longer than four months. Working solutions of the drug of 100 μM were prepared by diluting the stock solution with 100 mM ammonium acetate. The working solutions of the ligands were added to the working solution the oligonucleotides at RT, and the mixture incubated for different time intervals at room temperature. […] The chromatograms for HPLC assays using C1-linked PBD core (42), monomer (49) and dimer (51) compounds are shown in FIGS. 7, 8 and 9 respectively.

cancer cell lines = details: cited from earlier work
[2] = tested on: MDA MB231 (triple negative human breast cancer); assay: Cytotoxicity by MTT assay; assay type: cell-based; details: 72 hours exposure, MDA MB 231
Experimental: MDA MB231 (triple negative human breast cancer) was obtained from the American Type Culture Collection. The cell-line was maintained in monolayer culture in 75 cm^2 flasks (TPP, Switzerland) under a humidified 5% CO2 atmosphere at 37° C. The MDA MB231 cell line was maintained in high glucose (Dulbecco's Modified Eagle Medium) DMEM (4.5 g\l; Invitrogen), foetal bovine serum (10%, Biosera UK), non-essential amino acids (ix; Invitrogen), L-glutamine (2 mM; Invitrogen) and Penicillin-Streptomycin (1% v/v, Invitrogen). For passaging, cells were washed with PBS [Phosphate-Buffered Saline] […] For seeding, cells were counted using a Neubauer haemocytometer (Assistant, Germany) by microscopy (Nikon, USA) on a non-adherent suspension of cells that were washed in PBS, trypsinised, centrifuged at 8° C. at 8000 rpm for 5 min and re-suspended in fresh medium.
The cells were grown in normal cell culture conditions at 37° C. under a 5% CO2 humidified atmosphere using appropriate medium. […] After 72 h of continuous exposure to each compound, the cytotoxicity was determined using the 3-(4,5-Dimethylthiazol-2-yl)-2,5-diphenyltetrazolium bromide (MTT) (Lancaster Synthesis Ltd, UK) colorimetric assay. Absorbance was quantified by spectrophotometry at λ=570 nm (Envision Plate Reader, PerkinElmer, USA). IC50 values were calculated by a dose-response analysis using the Prism GraphPad Prism® software. […]

[3] = tested on: NF-KB consensus sequence (5′-GGGACAGCCC-3′); assay: HPLC assay of DNA adduct formation; assay type: binding; details: 4:1 ligand:oligonucleotide, room temperature, UV 254 nm
From the text: as §1

| SMILES | DNA adduct formation (HPLC chromatogram) [1] | activity against some cancer cell lines (cancer cell lines) | IC50 [2] [nM] | DNA adduct formation (HPLC chromatogram) [3] |
| --- | --- | --- | --- | --- |
| COc1cc2c(cc1OC)C(=O)N1CC[C@H](O)[C@H]1C=N2 [Compound 42, (1S,11aR)-1-Hydroxy-7,8-dimethoxy-1,2,3,11a-tetrahydro-5H-benzo[e]pyrrolo[1,2-a][1,4]diazepin-5-one] | evidence of DNA adduct formation; also recorded: interacted with the DNA consensus sequence to form adducts | – | – | – |
| COC(=O)c1cc(-c2ccc(NC(=O)c3nc(NC(=O)CCCOc4cc5c(cc4OC)C(=O)N4CCC[C@H]4C=N5)cn3C)cc2)cn1C [KMR-28-39] | – | femtomolar activity | – | – |
| COc1cc2c(cc1OC)C(=O)N1CC[C@H](OCCCO[C@H]3CCN4C(=O)c5cc(OC)c(OC)cc5N=C[C@H]34)[C@H]1C=N2 [Compound 51, (1S,1′S)-1,1′-(Propane-1,3-diylbis(oxy))bis(7,8-dimethoxy-1,2,3,11a-tetrahydro-5H-benzo[e]pyrrolo [1,2-a][1,4]diazepin-5-one)] | evidence of DNA adduct formation; also recorded: interacted with the DNA consensus sequence to form adducts | – | 236 ± 27 | – |
| COC(=O)c1cc(-c2ccc(NC(=O)c3nc(NC(=O)CO[C@H]4CCN5C(=O)c6cc(OC)c(OC)cc6N=C[C@H]45)cn3C)cc2)cn1C [Compound 49, Methyl 4-(4-(4-(2-(((1S,11aR)-7,8-dimethoxy-5-oxo-2,3,5,11a-tetrahydro-1H-benzo[e]pyrrolo[1,2-a][1,4]diazepin-1-yl)oxy)acetamido)-1-methyl-1H-imidazole-2-carboxamido)phenyl)-1-methyl-1H-pyrrole-2-carboxylate] | – | – | 36 ± 2.3 | evidence of DNA adduct formation; also recorded: interacted with the DNA consensus sequence to form adducts |
